Assay results reported in patent US9012446B2, “Amino-oxazines and amino-dihydrothiazine compounds as beta-secretase modulators and methods of use” (Amgen Inc., priority 2010, dated 2015).
Like-named read-outs stand apart in the source and are kept apart here.

Assays:
[1] = target: BACE (Homo sapiens, UniProt P56817); assay: In vitro enzymatic BACE FRET assay; format: biochemical; conditions: average IC50, enzyme assay; read-out: BACE 1 FRET assay
Procedure, shortened: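 Fluorescence […] after Tris quench reports cleavage of a 50 nM quenched peptide substrate over 1 h. Beforehand, 0.2 nM enzyme sits 1 h with inhibitor dilutions. Buffer: 0.05 M acetate pH 4.2, 100 uM genapol, 10% DMSO final.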

[2] = tested on: Aβ40; assay: In vitro BACE cell-based assay (Aβ40 sandwich ELISA, cells stably expressing APP); conditions: Homo sapiens
Procedure, shortened: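 Read-out is Aβ40 in cell supernatants, quantified by sandwich ELISA (capture 3 h, detection 2 h, both 4° C) with Delfia time-resolved fluorescence. Cells stably expressing APP were dosed across 10 concentrations from 100 μM or 10 μM top, 0.1% DMSO final; IC50 fitted from percent of control.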

[3] = tested on: Abeta 40; assay: In vivo inhibition of beta-secretase: Abeta 40 reduction in CSF and brain of the rat; conditions: 10 mpk, after 4 hrs
Source text: In Vivo Inhibition of Beta-Secretase
Several animal models, including mouse, rat, dog, and monkey, may be used to screen for inhibition of beta-secretase activity in vivo following administration of a test compound sample. Animals used in this invention can be wild type, transgenic, or gene knockout animals. For example, the Tg2576 mouse model, prepared and conducted as described in Hsiao et al., 1996, Science 274, 99-102, and other non-transgenic or gene knockout animals are useful to analyze in vivo inhibition of Amyloid beta peptide (Abeta) production in the presence of inhibitory test compounds. Generally, 2 to 18 month old Tg2576 mice, gene knockout mice or non-transgenic animals are administered test compounds formulated in vehicles, such as cyclodextran, phosphate buffers, hydroxypropyl methylcellulose or other suitable vehicles. One to twenty-four hours following the administration of compound, animals are sacrificed, and brains as well as cerebrospinal fluid (CSF) and plasma are removed for analysis of A-beta levels and drug or test compound concentrations (Dovey et al., 2001, Journal of Neurochemistry, 76,173-181) Beginning at time 0, animals are administered by oral gavage, or other means of delivery such as intravenous injection, an inhibitory test compound of up to 100 mg/kg in a standard, conventional formulation, such as 2% hydroxypropyl methylcellulose, 1% Tween80. A separate group of animals receive 2% hydroxypropyl methylcellulose, 1% Tween80 alone, containing no test compound, and serve as a vehicle-control group. At the end of the test period, animals are sacrificed and brain tissues, plasma or cerebrospinal fluid are collected. Brains are either homogenized in 10 volumes (w/v) of 0.2% diethylamine (DEA) in 50 mM NaCl (Best et al., 2005, Journal of Pharmacology and Experimental Therapeutics, 313, 902-908), or in 10 volumes of 0.5% TritonX-100 in Tris-buffered saline (pH at about 7.6). Homogenates are centrifuged at 355,000 g, 4° C. for 30 minutes. CSF or brain supernatants are then analyzed for the presence of A-beta peptide by specific sandwich ELISA assays based on ECL (Electrochemiluminescence) technology. For example, rat Abeta40 is measured using biotinylated-4G8 (Signet) as a capture antibody and Fab40 (an in-house antibody specific to the C-terminal of Abeta40) as a detection antibody. For example, 4 hours after administration of 30 mg/kg oral dose of the test compound in 2% hydroxypropyl methylcellulose, 1% Tween80 (pH2.2) to 200 g male Sprague Dawley rats, amyloid beta peptide levels are measured for reduction by X % and Y % in cerebrospinal fluid and brain, respectively, when compared to the levels measured in the vehicle-treated rats. • Actual vehicles used: Oral: 2% HPMC, 1% Tween80, pH 2.2 • IV: 5% EtOH, 45% Propylene glycol in 5% Dextrose
The compounds of the invention may be shown to reduce the formation and/or deposition of amyloid beta peptide in the cerebrospinal fluid (CSF) as well as in the brain of a mouse or rat at either 3 mpk, 10 mpk or 30 mpk (mpk=mg compound per kg weight of the animal) dosing concentrations after 4 hrs.

[4] = HEK293, average IC50, read-out: HEK cell assay
[5] = Abeta 40, rat CSF, read-out: % reduction of rat CSF levels at 10 pmk
[6] = Abeta 40, rat brain, read-out: % reduction of rat brain levels at 10 mpk
[7] = HEK293, average IC50, cell assay, HEK cells

Chain of BACE (P56817 46-501, species assumed): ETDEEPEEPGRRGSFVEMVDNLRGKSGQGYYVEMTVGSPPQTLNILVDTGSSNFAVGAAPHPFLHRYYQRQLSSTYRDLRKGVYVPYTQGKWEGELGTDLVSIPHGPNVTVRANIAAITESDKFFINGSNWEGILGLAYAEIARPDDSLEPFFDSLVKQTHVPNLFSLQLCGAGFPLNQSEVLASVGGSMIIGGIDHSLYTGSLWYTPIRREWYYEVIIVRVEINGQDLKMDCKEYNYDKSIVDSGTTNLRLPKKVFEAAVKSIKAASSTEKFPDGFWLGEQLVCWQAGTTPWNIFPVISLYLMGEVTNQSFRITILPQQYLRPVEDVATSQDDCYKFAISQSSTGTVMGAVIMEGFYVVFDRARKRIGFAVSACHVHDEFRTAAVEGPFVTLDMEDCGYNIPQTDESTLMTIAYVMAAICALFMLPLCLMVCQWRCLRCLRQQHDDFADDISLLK

Row | SMILES | IC50 [1] [nM] | IC50 [2, 4] [nM] | IC50 [2, 7] [nM] | inhibition in vivo at 10 mg/kg [3, 5] [%] | inhibition in vivo at 10 mg/kg [3, 6] [%]
1 | NC1=N[C@@]2(CCO1)c1cc(-c3cccnc3F)ccc1Oc1ncc(-c3ccnc(F)c3)cc12 [Example 60, (S)-7-(2-fluoropyridin-3-yl)-3-(2-fluoropyridin-4-yl)-5′,6′-dihydrospiro[chromeno[2,3-b]pyridine-5,4′-[1,3]oxazin]-2′-amine] | 12.2 | 11 |  | 56 | 25
2 | NC1=N[C@@]2(COC1)c1cc(-c3cccnc3F)ccc1Oc1cnc(-c3ccnc(F)c3)cc12 [Example 30, (S)-7-(2-fluoropyridin-3-yl)-3-(2-fluoropyridin-4-yl)-2′,6′-dihydrospiro[chromeno[2,3-c]pyridine-5,3′-[1,4]oxazin]-5′-amine] | 0.3 |  | 1.7 | 67 | 62
3 | NC1=N[C@@]2(COC1)c1cc(-c3cccnc3F)ccc1Oc1c(F)cc(C3=CCOCC3)cc12 [Example 40, (S)-2′-(3,6-dihydro-2H-pyran-4-yl)-4′-fluoro-7′-(2-fluoropyridin-3-yl)-2,6-dihydrospiro[[1,4]oxazine-3,9′-xanthen]-5-amine] | 0.3 |  | 3 | 33 | 15
4 | NC1=N[C@@]2(COC1)c1cc(-c3cccnc3F)ccc1Oc1c(F)cc(-c3ccnc(F)c3)cc12 [Example 36A, (S)-4′-fluoro-7′-(2-fluoropyridin-3-yl)-2′-(2-fluoropyridin-4-yl)-2,6-dihydrospiro[[1,4]oxazine-3,9′-xanthen]-5-amine] | 0.4 |  | 2.9 | 26 | 25
5 | CC1(C#Cc2cc(F)c3c(c2)[C@]2(CCOC(N)=N2)c2cc(-c4cccnc4F)ccc2O3)COC1 [Example 17A, (S)-4′-fluoro-7′-(2-fluoropyridin-3-yl)-2′-((3-methyloxetan-3-yl)ethynyl)-5,6-dihydrospiro[[1,3]oxazine-4,9′-xanthen]-2-amine] | 3.3 | 2.6 |  | 44 | 37

The next lines start with results.

Row | IC50 [1] [nM] | IC50 [2, 4] [nM] | IC50 [2, 7] [nM] | SMILES | inhibition in vivo at 10 mg/kg [3, 5] [%] | inhibition in vivo at 10 mg/kg [3, 6] [%]
6 | 0.4 |  | 2.3 | NC1=N[C@@]2(COC1)c1cc(-c3cncc(F)c3)ccc1Oc1cnc(-c3ccc(F)c(F)c3)cc12 [Example 114, (S)-3-(3,4-difluorophenyl)-7-(5-fluoropyridin-3-yl)-2′,6′-dihydrospiro[chromeno[2,3-c]pyridine-5,3′-[1,4]oxazin]-5′-amine] | 54 | 34
7 | 0.3 |  | 2.7 | NC1=N[C@@]2(COC1)c1cc(-c3cccnc3F)ccc1Oc1cnc(-c3ccc(F)c(F)c3)cc12 [Example 73, (5S)-3-(3,4-difluorophenyl)-7-(2-fluoro-3-pyridinyl)-6′H-spiro[chromeno[2,3-c]pyridine-5,3′-[1,4]oxazin]-5′-amine] | 62 | 42
8 | 4.8 |  | 3.8 | NC1=N[C@@]2(CCO1)c1cc(-c3cccnc3F)ccc1Oc1cnc(-c3ccnc(F)c3)cc12 [Example 149, (S)-7-(2-fluoropyridin-3-yl)-3-(2-fluoropyridin-4-yl)-5′,6′-dihydrospiro[chromeno[2,3-c]pyridine-5,4′-[1,3]oxazin]-2′-amine] | 80 | 62
9 | 0.6 |  | 5.2 | NC1=N[C@]2(COC1)c1cc(C3=CCOCC3)ccc1Oc1ccc(-c3cccnc3F)cc12 [Example 64, (R)-2′-(3,6-dihydro-2H-pyran-4-yl)-7′-(2-fluoropyridin-3-yl)-2,6-dihydrospiro[[1,4]oxazine-3,9′-xanthen]-5-amine] | 8 | 4
